Data from patent publication US8597904B2, “Pharmaceutical compositions for the treatment of conditions responsive to proteasome inhibition” (priority 2007, dated 2013).
Read-outs that look alike come from different tables or passages of the source.

Experiments:
[1] = molecular target: T1, human erythrocyte 20S proteasomes, caspase-like activity (Homo sapiens, UniProt P28072); assay: 20S Proteasome Assay Kit, Z-LLE-AMC substrate; assay type: biochemical
T1 construct: which contains human erythrocyte 20S proteasomes; purchased BIOMOL International AK-740; host or cells: human erythrocytes
Protocol: The eukaryotic 20S proteasome contains three catalytic subunits (β1, β2, and (β5) conferring caspase-like, trypsin-like and chymotrypsin-like proteolytic activities, respectively (Borissenko and Groll. 2007. Chem. Rev. 107:687-717, which is incorporated herein by reference in its entirety). Syringolin A was tested as a proteasome inhibitor using the 20S Proteasome Assay Kit for Drug Discovery AK-740 (BIOMOL® International, Plymouth Meeting, PA, USA), which contains human erythrocyte 20S proteasomes, in a 96-well microtiter plate. The fluorogenic substrates Suc-LLVY-AMC, Boc-LRR-AMC, and Z-LLE-AMC (BIOMOL® International) were used to monitor chymotrypsin-like, trypsin-like, and caspase-like activities, respectively. […] The release of free AMC (7-amino-4-methylcoumarin) at 37° C. was monitored with an MWGt Sirius HT fluorescence microplate reader (BIO-TEK® Instruments) equipped with a 360 nm excitation and a 460 nm emission filter. Proteolytic activities were measured as the increase in relative fluorescence units (RFU) over time (FIG. 7A-C). […] The initial velocities (vi) were determined from the time derivative of these curves and plotted versus the corresponding inhibitor concentration ([I]). […] The rate of covalent inhibition (kassociation), which equals kobs/[I] was calculated over the range of inhibitor concentrations given in parentheses in FIG. 7D. […]

[2] = molecular target: T2, proteasome activity in SKOV3 ovarian cancer cells (Homo sapiens, UniProt P28074); assay: Proteasome-Glo cell-based luminescent assay
T2 construct: in vivo proteasome activity in SK-N-SH neuroblastoma cells and SKOV3 human ovarian cancer cells; endogenous in cells; host or cells: SKOV3
T2 sequence (P28074 60-263): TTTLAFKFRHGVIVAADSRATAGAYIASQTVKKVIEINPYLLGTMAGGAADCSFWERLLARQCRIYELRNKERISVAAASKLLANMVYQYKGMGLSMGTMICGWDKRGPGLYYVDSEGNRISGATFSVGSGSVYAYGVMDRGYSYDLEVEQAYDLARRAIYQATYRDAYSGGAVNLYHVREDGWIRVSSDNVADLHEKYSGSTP
Protocol: Syringolin A was tested as a proteasome inhibitor in vivo in cultured mammalian cancer cells. Inhibition of proteasome activity in human SK-N-SH neuroblastoma cells was measured using the Proteasome-Glo™ cell-based luminescent assay (Promega) in solid white 96-well microtiter cell culture plates. Ten μl of syringolin A (at various concentrations) was added to each well containing SK-N-SH cells (plated at a concentration of 1.0×10^5 cells/ml in 90 μl well volumes 24 hours prior) and a negative control and media only control were included. Cells were incubated with 1-100 μM syringolin A for 2 hours or 24 hours, and then equilibrated to room temperature for 15 minutes before 100 μl of Proteasome-Glo reagent (containing bioluminescent substrate Suc-LLVY-aminoluciferin) was added to the cells. Luminescence (indicated as relative luminescence units [RLU]) was read after 15-30 minutes on a Dynex MLX Luminometer.
The cell culture-based proteasome inhibition assay was performed as previously described (Groll et al. 2008. Nature 452:755-758, which is incorporated herein by reference in its entirety). Briefly, wells of white-walled 96-well microtiter cell culture plates were seeded at a density of 1×10^4 cells/well (SK-N-SH) or 5×10^3 cells/well (SKOV3) in 90 μl. After 24 hours, 10 μl GlbA or SylA were added at increasing concentrations (0-100 μM) and incubated for 2 hours. […] Cell Death Differ 9:1017-1025; Meng, et al. 1999. PNAS 96:10403-10408, each of which is incorporated herein by reference in its entirety) were used as positive and negative controls, respectively. Microtiter plates were then equilibrated to room temperature for 15 min before adding 100 μl of proteasome Glo™ reagent (containing bioluminescent substrate Suc-LLVY-aminoluciferin) per well. Luminescence was measured on a Dynex MLX luminometer, according to the manufacturer's instructions (Promega).

Row | Compound | inhibition of caspase-like activity ([1]; 37° C., 100 μM Z-LLE-AMC) | IC50 [2] [µM] | proteasome activity in cells ([2]; SKOV3, 2 hours incubation, listed as SylA) | inhibition of caspase-like activity ([1]; concentrations tested up to 20 μM) | IC50 ([2]; SKOV3, 2 hours, read-out: IC50 of proteasomal activity) [µM] | potency of GlbA relative to SylA ([2]; SKOV3, ratio of IC50)
1 | CC(C)[C@H](NC(=O)N[C@H](C(=O)N[C@H]1/C=C/CCNC(=O)/C=C/[C@H](C(C)C)NC1=O)C(C)C)C(=O)O [syringolin A] | inhibited | 4.03 | dose-dependent manner |  |  | 
2 | CCCCCCC/C=C/C=C/C(=O)N[C@H](C(=O)N[C@H]1C[C@@H](O)CCNC(=O)/C=C/[C@H](C)NC1=O)[C@@H](C)O [glidobactin A] |  |  |  | not inhibited | 0.25 | approximately 16 fold
